{
  "source": "patent US10859569B2",
  "about": "“SmFRET with membrane proteins” (Cornell University, priority 2010, dated 2020)",
  "key": {"LeuT (H7C/R86C)": {"tested_on": "LeuT (H7C/R86C)", "assay": "smFRET imaging of surface-immobilized Cy3/Cy5-labeled LeuT (H7C/R86C), intracellular gate", "type": "biochemical, Aquifex aeolicus", "description": "(§1) The inventors acquired fluorescence data using a prism-based TIR microscope, as described (Munro, J. B. et al., Mol. Cell 25, 505-517 (2007)). All experiments were performed in buffer containing 50 mM Tris/MES (pH 7.5), 10% glycerol, 0.02% w/v DDM, 5 mM 2-mercaptoethanol and 200 mM salt (KCl or NaCl, as specified). The inventors used an oxygen scavenging environment (1 unit per μl glucose oxidase, 8 units per μl catalase, 0.1% v/v glucose) containing 1 mM cyclooctatetraene in all experiments to minimize photobleaching (Dave, R. et al., Biophys. J. 96, 2371-2381 (2009)).\n(§2) The inventors incubated microfluidic imaging chambers passivated with a mixture of PEG and biotin-PEG (Blanchard, S. C. et al. Proc. Natl Acad. Sci. USA 101, 12893-12898 (2004)) with 0.8 μM streptavidin (Invitrogen), followed by 20 nM biotin-NTA (Biotium) charged with NiCl2. Cy3/Cy5-labeled His10-LeuT molecules (2 nM) were surface-immobilized to surface-bound Ni2+. The inventors observed no significant surface immobilization, measured as described below, in the absence of biotin-NTA.\nCy3 fluorophores were excited by the evanescent wave generated by TIR of a single-frequency light source (Ventus 532 nm, Laser Quanta). Photons emitted from Cy3 and Cy5 were collected using a 1.2 NA 60× water-immersion objective (Nikon), and optical treatments were used to spatially separate Cy3 and Cy5 frequencies onto a cooled, back-thinned CCD (Cascade 128, Photometrics). The inventors acquired fluorescence data using MetaMorph software (Universal Imaging Corporation). The inventors corrected spectral bleed-through of Cy3 intensity on the acceptor channel by subtracting 7.5% of donor signal from the acceptor. FRET traces were calculated as: FRET=ICy5/(ICy3+ICy5), where ICy3 and ICy5 are the instantaneous Cy3 and Cy5 fluorescence intensities, respectively. Using an established procedure (Roy, et al., Nature Methods 5: 507-516 (2008)), The inventors estimated the ratio of donor and acceptor quantum yields and detection efficiencies (γ) to be close to 1; therefore, no correction was applied.\nThe inventors analyzed fluorescence and FRET traces using automated analysis, in which traces were selected using algorithms implemented in MATLAB (MathWorks). Algorithms for analyzing smFRET data are found in U.S. 61/437,203, which is herein incorporated by reference in its entirety. Properties were calculated for each trace, and selected for further analysis if they met the following specific criteria: a single photobleaching event, at least 8:1 signal-to-background noise ratio (SNR), <4 donor fluorophore blinking events, a donor-to-acceptor Pearson's correlation coefficient <0.5, and a lifetime of at least 15 frames showing FRET ≥0.15. The inventors detected photobleaching events in each trace as a significant (≥3 standard deviations of background noise) drop in the median-filtered (window size of 9 frames) total fluorescence intensity (ITotal=ICy3+ICy5) without a return to the previous average level. Events in which fluorescence intensity did return were marked as blinking events. Signal-to-noise ratios are calculated as total intensity relative to the standard deviation of background noise: ITotal/stdev(ICy3)+stdev(ICy5). The inventors excluded data points corresponding to donor fluorophore dark states from calculation of the correlation coefficient.\nTo simplify the presentation of FRET histograms, The inventors removed zero-FRET states following idealization of the data to a two-state model (E=0.1±0.1 and E=0.4±0.1) using a segmental k-means algorithm (Qin, F., Biophys. J. 86, 1488-1501 (2004)). Error bars in FRET histograms represent the standard deviation of 100 bootstrap samples of each set of FRET traces examined.\nThe inventors estimated kinetic parameters for biotinylated H7C-R86C-LeuT samples by manually selecting traces showing at least one transition between clearly distinct states with anti-correlated changes in donor and acceptor fluorescence intensity in each transition. […]"}, "LeuT [1]": {"tested_on": "LeuT", "assay": "Scintillation proximity assay (SPA) binding of 3H-alanine to purified LeuT variants", "parameters": "species or system Aquifex aeolicus", "settings": "50 mM Na+", "description": "Scintillation proximity-based binding studies. Binding of ^3H-leucine or ^3H-alanine (146 Ci/mmol and 49.4 Ci/mmol, respectively; Moravek) to purified LeuT-variants was measured with the scintillation proximity assay (SPA) as described (Shi, L. et al., Mol. Cell 30, 667-677 (2008)) with 25 ng of purified protein per assay in buffer composed of 150 mM Tris/Mes, pH 7.5/50 mM NaCl/1 mM TCEP/0.1% n-dodecyl-β-D-maltopyranoside or 50 mM Tris/Mes, pH 7.5/150 mM LiCl/1 mM TCEP/0.1% n-dodecyl-β-D-maltopyranoside. To determine the molar ratio of Leu (or Ala)-to LeuT binding samples were incubated with increasing concentrations of radioligand and measured in the SPA cpm mode of the MircoBeta™ counter (Perkin Elmer). The efficiency of detection was calculated with standard curves of known concentrations of ^3H-Leu or ^3H-Ala. The standard curves were used to transform cpm into the amount of bound substrate (Shi, L. et al., Mol. Cell 30, 667-677 (2008)). The amount of LeuT in the SPA assays was determined (Schaffner, W. et al., Anal. Biochem. 56, 502-514 (1973)). SPA-based binding studies using 2 μM [^22Na]Cl (1017 mCi/mg; Perkin Elmer) were performed in 200 Tris/Mes, pH 7.5/1 mM TCEP/0.1% n-dodecyl-β-D-maltopyranoside in the presence of 0-50 mM NaCl (equimolar replacement of Tris/Mes to obtain a total molarity of 200 mM) (Shi, L. et al., Mol. Cell 30, 667-677 (2008)). […]"}, "LeuT [2]": {"tested_on": "LeuT", "assay": "3H-Ala transport in LeuT proteoliposomes", "type": "biochemical, Aquifex aeolicus", "settings": "in the presence of Li+ (150 mM)", "description": "Proteoliposomes were prepared as described (Shi, L. et al., Mol. Cell 30, 667-677 (2008)). The accumulation of ^3H-[…].4 Ci mmol^-1; Moravek) was measured at 23° C. in assay buffer comprised of 150/50 mM Tris/Mes (pH 8.5) and 50 mM NaCl/150 mM LiCl. The reaction was quenched by the addition of ice-cold assay buffer without radiotracer and the proteoliposomes were collected on GF75 glass fiber filters (Advantec) before the determination of the accumulated cpm by liquid scintillation counting."}, "LeuT (K239C/H480C)": {"tested_on": "LeuT (K239C/H480C)", "assay": "smFRET imaging of extracellularly labeled LeuT K239C/H480C", "type": "biochemical, Aquifex aeolicus", "settings": "0.5 mM CMI; increased from ~0.49 without CMI", "description": "as §1\nas §2, with “Cy3/Cy5-labeled His10-LeuT molecules (2 nM) were surface-immobilized to surface-bound Ni2+.” left out\n(§3) Cy3 fluorophores were excited by the evanescent wave generated by TIR of a single-frequency light source (Ventus 532 nm, Laser Quanta). […] The inventors acquired fluorescence data using MetaMorph software (Universal Imaging Corporation). […] FRET traces were calculated as: FRET=ICy5/(ICy3+ICy5), where ICy3 and ICy5 are the instantaneous Cy3 and Cy5 fluorescence intensities, respectively. […]"}, "LeuT (H7C/T515C)": {"tested_on": "LeuT (H7C/T515C)", "assay": "smFRET imaging of Cy3/Cy5-labeled LeuT H7C/T515C", "type": "biochemical, Aquifex aeolicus", "settings": "saturating Na+ 200 mM", "description": "as §1\nas §2, with “Cy3/Cy5-labeled His10-LeuT molecules (2 nM) were surface-immobilized to surface-bound Ni2+.” left out\nas §3"}, "LeuT [3]": {"tested_on": "LeuT", "settings": "read-out: half-maximum effective concentration (EC50) of Na+ for stimulating binding and transport; cited from earlier work"}, "[4]": {"biological_target": "Y335A dopamine transporter (Homo sapiens, UniProt Q01959, Y335A)", "sequence (Q01959 whole entry Y335A)": "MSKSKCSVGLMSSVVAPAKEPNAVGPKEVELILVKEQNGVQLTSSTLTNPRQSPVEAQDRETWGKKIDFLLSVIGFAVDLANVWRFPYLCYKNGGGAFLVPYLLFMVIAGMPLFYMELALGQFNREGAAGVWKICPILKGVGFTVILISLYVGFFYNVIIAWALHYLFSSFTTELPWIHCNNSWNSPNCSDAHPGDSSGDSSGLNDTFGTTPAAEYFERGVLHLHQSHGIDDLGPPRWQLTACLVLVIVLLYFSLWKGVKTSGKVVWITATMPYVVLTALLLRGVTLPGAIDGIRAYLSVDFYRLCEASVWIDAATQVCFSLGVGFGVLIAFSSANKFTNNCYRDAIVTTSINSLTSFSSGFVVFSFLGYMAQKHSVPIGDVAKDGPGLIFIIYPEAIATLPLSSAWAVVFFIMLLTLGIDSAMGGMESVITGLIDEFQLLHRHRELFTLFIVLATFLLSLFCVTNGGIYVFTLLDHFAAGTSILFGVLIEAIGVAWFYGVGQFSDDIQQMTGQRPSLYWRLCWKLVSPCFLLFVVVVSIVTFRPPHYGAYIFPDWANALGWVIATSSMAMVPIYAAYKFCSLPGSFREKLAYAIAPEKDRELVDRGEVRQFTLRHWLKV", "settings": "Y335A dopamine transporter mutant; cited from earlier work"}, "[5]": {"settings": "10 mM Na+ and 250 μM Ala, 0.1 mM CMI or 35 mM OG"}},
  "note": "pEC50: −log10 of the molar value. Entries after “also recorded” stand apart in the source; their conditions may differ.",
  "data": [
    {"compound": "C[C@H](N)C(=O)O", "note": "[Ala, L-alanine]", "values": [
      {"measurement": "effect on FRET distribution", "setting": "LeuT (H7C/R86C); 2 mM Na+, increasing Ala concentrations", "result": "did not shift the FRET distribution toward the closed state"},
      {"measurement": "enhancement of transition rates between inward-open and inward-closed states", "setting": "LeuT (H7C/R86C); 2 mM Na+, as much as", "result": "~4", "unit": "fold"},
      {"measurement": "effect on lifetimes of inward-open or inward-closed states", "setting": "LeuT (H7C/R86C); Ala alone, nominal absence of Na+", "result": "not significantly affected"},
      {"measurement": "effect on intracellular gating dynamics", "setting": "LeuT (H7C/R86C); F253A (S1 site) mutant, 10 mM Na+, 250 μM Ala", "result": "failed to increase intracellular gating dynamics"},
      {"measurement": "effect on intracellular gating dynamics", "setting": "LeuT (H7C/R86C); L400S (S2 site) mutant, 10 mM Na+, 250 μM Ala", "result": "no increase in intracellular gating dynamics was observed"},
      {"measurement": "effect on intracellular gating dynamics", "setting": "LeuT (H7C/R86C); Li+ in place of Na+ (40 mM Li+), 250 μM Ala", "result": "failed to accelerate intracellular gating dynamics"},
      {"measurement": "reduction in the rate of gate opening, kclosed-open", "setting": "LeuT (H7C/R86C); Li+ in place of Na+, 250 μM Ala", "result": "~2", "unit": "fold"},
      {"measurement": "lowering of activation barrier between open and closed states (ΔΔG)", "setting": "LeuT (H7C/R86C); as much as, conditions of the experiment", "result": "~0.72", "unit": "kcal/mol"},
      {"measurement": "Ala binding to the S2 site", "setting": "LeuT [1]; F253A mutant", "result": "bound stoichiometrically"},
      {"measurement": "Ala binding to the S1 site", "setting": "LeuT [1]; L400S mutant", "result": "stoichiometric"},
      {"measurement": "substrate transport", "setting": "LeuT [2]", "result": "not observed"}
    ]},
    {"compound": "CN(C)CCCN1c2ccccc2CCc2ccc(Cl)cc21", "note": "[CMI, clomipramine]", "values": [
      {"measurement": "FRET value of stabilized high-FRET state", "setting": "LeuT (H7C/R86C); 0.5 mM CMI, 200 mM KCl, wild-type H7C/R86C", "result": "~0.69"},
      {"measurement": "effect on intracellular gating dynamics", "setting": "LeuT (H7C/R86C); [5]", "result": "essentially eliminated the occurrence of intracellular gate opening; also recorded: inhibits these conformational dynamics"},
      {"measurement": "FRET between K239C/H480C labels with inhibitor bound", "setting": "LeuT (K239C/H480C)", "result": "~0.53"}
    ]},
    {"compound": "CC(C)C[C@H](N)C(=O)O", "note": "[Leu, L-leucine]", "values": [
      {"measurement": "further changes in FRET upon addition of leucine", "setting": "LeuT (H7C/R86C); 20 μM leucine at 200 mM Na+", "result": "did not observe further changes in FRET"},
      {"measurement": "stabilization of closed intracellular gate state", "setting": "LeuT (H7C/R86C); 2 mM Na+, Leu titration", "result": "~3.5", "unit": "fold"},
      {"measurement": "effect of leucine binding on low-/high-FRET populations", "setting": "LeuT (H7C/R86C); 5 mM Na+, 0.2-20 μM leucine", "result": "redistributed the two populations in a concentration-dependent fashion in favour of higher-FRET configurations"},
      {"measurement": "FRET value of high-FRET configurations reached by leucine-dependent isomerization", "setting": "LeuT (H7C/R86C); LeuT-R5A, 7/86 pair, 200 mM NaCl and 20 μM leucine", "result": "~0.77"},
      {"measurement": "raising of energy barrier to motion", "setting": "LeuT (H7C/R86C); as much as, similar to Na+ (50 mM) alone", "result": "~0.96", "unit": "kcal/mol"}
    ]},
    {"compound": "[Na+]", "note": "[Na^+]", "values": [
      {"measurement": "preferential stabilization of the inward-closed state", "setting": "LeuT (H7C/R86C); Na+ titration", "result": "~7", "unit": "fold"},
      {"measurement": "pEC50", "setting": "LeuT (H7C/R86C); hidden Markov modeling of Na+ titration, read-out: EC50 for altering distribution of low- and high-FRET LeuT conformations", "result": 1.96},
      {"measurement": "dwell time of high FRET state", "setting": "LeuT (H7C/R86C); high Na+ concentrations, limited by photobleaching", "result": "> 76", "unit": "s"},
      {"measurement": "FRET value of stabilized higher-FRET state", "setting": "LeuT (H7C/R86C); saturating Na+ 200 mM, H7C/R86C", "result": "~0.77"},
      {"measurement": "FRET value of stabilized higher-FRET state", "setting": "LeuT (H7C/T515C)", "result": "~0.73"},
      {"measurement": "pEC50", "setting": "LeuT [3]", "result": "~2.00"}
    ]},
    {"compound": "CCCCCCCCO[C@@H]1O[C@H](CO)[C@@H](O)[C@H](O)[C@H]1O", "note": "[OG, n-octyl-β-D-glucopyranoside]", "values": [
      {"measurement": "effect on intracellular gating dynamics", "setting": "LeuT (H7C/R86C); [5]", "result": "inhibited intracellular gating dynamics"}
    ]},
    {"compound": "[Zn]", "note": "[zinc]", "values": [
      {"measurement": "effect on transport", "setting": "[4]", "result": "markedly enhances transport"}
    ]}
  ]
}
